US7201899B2, “Materials and methods for management of hyperacute rejection in human xenotransplantation” (BresaGen Limited, priority 1994, dated 2007)
Entries after “also recorded” stand apart in the source; their conditions may differ.

Columns and labels:
PK-1 and PAE's cells = test: Antibody staining and FACS analysis of porcine cells; format: binding; conditions: for inhibition of anti-GAL IgM and/or IgG staining of porcine cells by sugar: anti-GAL antibodies pre-incubated with sugar (0.1 M) at 37° C. for 30 min; for decrease of anti-GAL antibody staining of PAE's (FIG. 1): anti-GAL antibody pre-incubated with sugar, versus anti-GAL antibody alone
Protocol: C. Antibody Staining and FACS Analysis • 1) Add 2 ml TED to a 75 cm^2 culture flask containing PK-1 or PAE'S, and incubate at room temperature for 10 min. • 2) Add RPMI plus 10% FCS (5 ml) to neutralize trypsin. • 3) Pellet cells by centrifugation (700 g, 5 min, • 4) Wash cells by resuspension and centrifugation in Hanks Buffer (×2). • 5) Pellet cells by centrifugation (700 g, 5 min, 4° C.). • 6) Resuspend cell pellet in Hanks buffer containing purified anti-GAL antibodies, GAL-depleted serum or GAL-depleted IgG and incubate at 4° C. for 60 min. All antibodies were used undiluted, or diluted 1:2 or 1:4 in Hanks buffer. • 7) Add 1 ml of Hanks Buffer, pellet cells by centrifugation and aspirate off supernatant. • 8) Resuspend pellet in FITC-labelled sheep-anti-human IgG Fab2 or IgM Fab2 (Silenus, Hawthorn, Australia) diluted 1:80 in Hanks buffer. • 9) Incubate for 30 min. at 4° C. • 10) Wash three times with Hanks buffer; resuspend pellet from final wash in 0.5 ml Hanks buffer. • 11) Analyze stained samples using a FACScan II (Becton Dickinson) according to the manufacturer's instructions.
The specificity of the anti-GAL antibody binding to porcine cells was determined by examining the ability of sugars of various structures to inhibit antibody binding. In these competition studies the anti-GAL antibodies were pre-incubated with sugar (0.1 M) at 37° C. for 30 min before adding to the cells.

[1] = tested on: pig kidney, heart and liver sections; test: Immunostaining of pig tissues with anti-GAL antibodies; format: binding; conditions: pig renal cortex sections, proximal tubule brush borders; sugar 0.1 M
Protocol: Pig kidney was fixed in formalin and dehydrated before embedding in Paraplast. Pig heart and liver were fixed in paraformaldehyde-lysine-periodate fixative and snap frozen in O.C.T. embedding compound (10.24% w/w polyvinyl alcohol, 4.26% w/w polyethylene glycol, 85.50% w/w nonreactive ingredients; Tissue Tek®, Miles, Inc., Elkhart, Ind., USA). Four μm-thick sections of pig heart and liver and 2 μm-thick sections of kidney were incubated with purified anti-GAL antibodies (undiluted, 1:2 and 1:4) for 60 min. and then incubated with a fluorescein isothiocyanate (FITC)-conjugated sheep anti-human immunoglobulin F(ab′) fragment. (Silenus Laboratories, Hawthorn, Australia) (1:100) for 30 min. or a peroxidase-conjugated rabbit anti-human IgG (Dakopatts, Glostrup, Denmark) (1:50) for 60 min. Control sections were analyzed for autofluorescence, with the secondary antibody alone, or with the anti-GAL-depleted IgG or normal pig serum as the primary antibody. […] The specificity of the anti-GAL antibodies was tested by pre-incubating sections of pig renal cortex with a variety of sugars, including melibiose, lactose, sucrose and glucose at 0.1 M.

pig RBC = test: Hemagglutination of pig RBC by human serum: sugar inhibition; format: cell-based; conditions: for Inhibitory Concentration: inhibition of pig RBC hemagglutination by pooled human AB serum; for concentration range inhibiting agglutination (in words): pig RBC agglutination by human serum
Protocol: The methods used to investigate the hemagglutination of pig red blood cells (RBC's) by human serum was adapted from the methods described by Galili, J. Exp. Med. 160: 1579–81 (1984) and Severson, Immunol. 96: 785–789 (1966).
A. Media/Solution Preparation • 1. Human Serum Albumin (HSA) (CSL, Melbourne, Australia) (5 mg/ml) was dissolved in PBS, filter sterilized, and stored at 4° C. • 2. Preparation of sugars: • 1 M stock solutions of sugar were prepared by dissolving the amount indicated in 100 ml of PBS. Sodium azide was added (0.02%) and solutions stored at 4° C.
B. Preparation of Pig RBC'S • 1. Heparinised pig blood (Animal Resources, Clayton, Australia) is centrifuged at 800 RPM for 10 min to pellet the RBC. • 2. The RBC pellet is washed by resuspension in PBS (10 ml) and recentrifugation (repeated 3 times). After the final wash, the RBC pellet is resuspended in 10 ml PBS. • 3. A 0.5% solution of RBC's is prepared by adding 50 ul RBC solution (from step 2, above) to 10 ml PBS containing 0.5 g/100 ml of HSA.
C. Preparation of 96-well Microtitre Plates (Titretek. USA) • 1. Add 25 ul of PBS to each well. • 2. Add 25 ul of pooled human AB serum (CSL, Melbourne, Australia) to column 1 and serially dilute by removing 25 ul from column 1 and adding to column 2, then repeating by sequentially removing and adding 25 ul from and to each well across the plate, finally discarding 25 μl from column 11 and adding no serum to column 12. • 3. Add 25 ul of sugar solution to each row in decreasing concentrations down rows. No sugar solution is added to the final row. • 4. Incubate at 4° C. overnight and then at 37° C. for 30 min. • 5. Add 50 ul of 0.5% pig RBC to each well; vortex and incubate at room temperature for 2 hours. Determine agglutination visually. II. Results

PAE's = test: Cytotox LDH release assay: effect of sugars on lysis of PAE's by human serum; format: cell-based, porcine; conditions: 50% human serum, sugar 1 mM to 100 mM
Protocol: B. LDH Release Assay • 1. […] Controls: • a) Spontaneous release (no antibody or complement) • 25 μl labeled cells • 75 μl RPMI/10% FCS (heat inactivated) • b) Maximum release • 25 μl labeled cells • 50 μl 16% Triton X-100 • 25 μl RPMI/10% FCS (heat inactivated) • 3. Calculation of % Lysis: % Lysis=Experimental release−(Spontaneous release cpm+sugar cpm)×100 Maximum release−(Spontaneous release cpm+sugar cpm) • 4. Experimental Design:
The effect of adding the disaccharide sugars melibiose ([…]) and lactose (Gal β1→4 Glu) on the lysis of PAE's by human serum was assessed using the Cytotox non-radioactive LDH release assay. PAE's were incubated in the presence of 50% human serum as the source of xenoantibody and complement, together with various concentrations of each sugar (1 mM to 100 mM).

Row | SMILES | inhibition of anti-GAL IgM and/or IgG staining of porcine cells by sugar (PK-1 and PAE's cells) | decrease of anti-GAL antibody staining of PAE's (FIG. 1) (PK-1 and PAE's cells) | inhibition of anti-GAL antibody binding to pig tissue by sugar [1] | Inhibitory Concentration (pig RBC) | concentration range inhibiting agglutination (in words) (pig RBC) | protection of PAE's from lysis by human serum (PAE's)
1 | OC[C@H]1O[C@@H](O[C@H]2[C@H](O)[C@@H](O)[C@@H](O)O[C@@H]2CO)[C@H](O)[C@@H](O)[C@H]1O [Lactose, 4-O-β-D.galactopyranosyl-α-D-glucose] | not inhibited | not affected significantly | not inhibited | >10^−1M | only inhibitory when very high concentrations were used | not
2 | O=C[C@H](O)[C@@H](O)[C@H](O)[C@H](O)CO[C@H]1O[C@H](CO)[C@H](O)[C@H](O)[C@H]1O [Melibiose, 6-O-α-D-galactopyranosyl-D-glucose] | inhibited | approximately 10 fold less | reduced to near background; also recorded: inhibited | 0.0005 M | μM to mM range | protected the pig cells from lysis
